Test: recombinant barcode read abundance after kanamycin selection (control-corrected) (log10(CPM+1)); higher = more efficient recombination; sequences stand for … in AGTGCAGAGAAAATCGGCCAGTTTTCTCTGCCTGCAGTCCGCATGCCGT…AGATTTATGCAGCGGACTGCCTTTCTCCCAAAGTGATAAACCGGACAGTATCATGGACCGGTTTTCCCGGTAATCCGTATTTGCAAGGTTGGTTTCACT; site = the 11-nt target
Outline: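 Recombination efficiency was calculated from barcode counts at recombinant junctions, normalized to counts per million, averaged and corrected by the control. Each value is given as log10(CPM+1). The constructs were Gibson-cloned oligos (promoter, target, barcode, J23119-driven first 104 bridge RNA bases) in a vector with the remaining 73 bp and a T7-inducible recombinase, co-electroporated into E. coli with a donor plasmid and plated in duplicate on chloramphenicol/ampicillin LB agar (control) or chloramphenicol/ampicillin/kanamycin with 0.1 mM IPTG.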
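Also: IS621 recombinase and bridge RNA in Escherichia coli cells.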

Sequence | recombinant barcode read abundance (log10)
ATCGTACCTTGGGTTCTAACCTGTTGCTG (site ATCGTACCTCA) | 0.123
ATCTGTTCTTGGGTTCTAACCTGTTGCCT (site ACCTGTGCTAG) | 0.108
ATCTGTTCTTGGGTTCTAACCTGTTGCCT (site ATCTGTTCTAG) | 0.327
ATCTTAGCTTGGGTTCTAACCTGTTGCCT (site ATCTTAACTAG) | 0.0917
ATCTTAGCTTGGGTTCTAACCTGTTGCCT (site ATCTTACCTAG) | 0.141
ATCTTAGCTTGGGTTCTAACCTGTTGCCT (site ATCTTAGCTAG) | 0.266
ATCTTAGCTTGGGTTCTAACCTGTTGCCT (site ATCTTATCTAG) | 0.197
ATCTTGTCTTGGGTTCTAACCTGTTGCCG (site ATCTTGTCTAG) | 0.264
ATCTTGTCTTGGGTTCTAACCTGTTGCCG (site ATCTTGTCTCG) | 0.0848
ATCTTGTCTTGGGTTCTAACCTGTTGCGG (site ATCTTGTCTCC) | 1.83
ATCTTGTCTTGGGTTCTAACCTGTTGCGG (site CATGATACTAG) | 0.102
ATGAATGCTTGGGTTCTAACCTGTTGCCT (site ATGAATGCTAG) | 1.78
ATGAATGCTTGGGTTCTAACCTGTTGCCT (site ATGATTGCTAG) | 0.0173
ATGACCTCTTGGGTTCTAACCTGTTGCCT (site ATGACCTCTAG) | 1.46
ATGACCTCTTGGGTTCTAACCTGTTGCCT (site ATGCCCTCTAG) | 0.0297
ATGACCTCTTGGGTTCTAACCTGTTGCCT (site ATGGCCTCTAG) | 0.46
ATGACCTCTTGGGTTCTAACCTGTTGCCT (site ATGTCCTCTAG) | 0.0902
ATGAGAACTTGGGTTCTAACCTGTTGCCG (site ATGAGAACTAG) | 1.58
ATGAGAACTTGGGTTCTAACCTGTTGCCG (site ATGAGAACTCG) | 1.05
ATGAGGACTTGGGTTCTAACCTGTTGCGT (site ATGAGGACTAC) | 2.45
ATGAGGACTTGGGTTCTAACCTGTTGCGT (site CACCCCTCTCG) | 0.14
ATGAGGCCTTGGGTTCTAACCTGTTGCCT (site ATGAGGCCTAG) | 0.858

Sequence | recombinant barcode read abundance (log10)
ATGAGGCCTTGGGTTCTAACCTGTTGCCT (site CTGAGGCCTAG) | 0.115
ATGAGGCCTTGGGTTCTAACCTGTTGCCT (site GTGAGGCCTAG) | 0.173
ATGAGGCCTTGGGTTCTAACCTGTTGCCT (site TTGAGGCCTAG) | 0.209
ATGCAAGCTTGGGTTCTAACCTGTTGCCT (site ATGCAAACTAG) | 0.898
ATGCAAGCTTGGGTTCTAACCTGTTGCCT (site ATGCAACCTAG) | 0.0657
ATGCAAGCTTGGGTTCTAACCTGTTGCCT (site ATGCAAGCTAG) | 1.48
ATGCAAGCTTGGGTTCTAACCTGTTGCCT (site ATGCAATCTAG) | 0.234
ATGCATCCTTGGGTTCTAACCTGTTGCCT (site AAGCATCCTAG) | 0.0651
ATGCATCCTTGGGTTCTAACCTGTTGCCT (site ACGCATCCTAG) | 0.0924
ATGCATCCTTGGGTTCTAACCTGTTGCCT (site AGGCATCCTAG) | 0
ATGCATCCTTGGGTTCTAACCTGTTGCCT (site ATGCATCCTAG) | 1.99
ATGCCATCTTGGGTTCTAACCTGTTGCCT (site ATACCATCTAG) | 0.434
ATGCCATCTTGGGTTCTAACCTGTTGCCT (site ATCCCATCTAG) | 0.885
ATGCCATCTTGGGTTCTAACCTGTTGCCT (site ATGCCATCTAG) | 0.503
ATGCCATCTTGGGTTCTAACCTGTTGCCT (site ATTCCATCTAG) | 0.149
ATGGACACTTGGGTTCTAACCTGTTGCGT (site ATGGACACTAC) | 1.93
ATGGACACTTGGGTTCTAACCTGTTGCGT (site GACTGGCCTCT) | 0.133
ATGGCGCCTTGGGTTCTAACCTGTTGCCT (site AAGGCGCCTAG) | 0.296
ATGGCGCCTTGGGTTCTAACCTGTTGCCT (site ACGGCGCCTAG) | 0.846
ATGGCGCCTTGGGTTCTAACCTGTTGCCT (site AGGGCGCCTAG) | 0.183
ATGGCGCCTTGGGTTCTAACCTGTTGCCT (site ATGGCGCCTAG) | 0.856

Source: the supplement of paper PMC11208160
